What was measured:
ORYSA=Orysa sativa, Rice = assay: In-water applied herbicides and safeners in transplanted paddy rice, visual injury; format: in vivo; conditions: for Mean Visual Injury (%) - 21 DAA ORYSA - ‘M202’ / Mean Visual Injury (%) - 21 DAA ORYSA - ‘Wells’: in-water applied
Description: (§1) Weed seeds or nutlets of the desired test plant species were planted in puddled soil (mud) prepared by mixing a shredded, non-sterilized mineral soil (50.5 percent silt, 25.5 percent clay, and 24 percent sand, with a pH of about 7.6 and an organic matter content of about 2.9 percent) and water at a 1:1 volumetric ratio. The prepared mud was dispensed in 365 mL aliquots into 16-ounce (oz.) non-perforated plastic pots with a surface area of 86.59 square centimeters (cm^2) leaving a headspace of 3 centimeters (cm) in each pot. Rice seeds were planted in Sun Gro MetroMix® 306 planting mixture, which typically has a pH of 6.0 to 6.8 and an organic matter content of about 30 percent, in plastic plug trays. Seedlings at the second or third leaf stage of growth were transplanted into 860 mL of mud contained in 32-oz. non-perforated plastic pots with a surface area of 86.59 cm^2 4 days prior to herbicide application. The paddy was created by filling the headspace of the pots with 2.5 to 3 cm of water. When required to ensure good germination and healthy plants, a fungicide treatment and/or other chemical or physical treatment was applied. The plants were grown for 4-22 days in a greenhouse with an approximate 14 h photoperiod which was maintained at about 29′C during the day and about 26° C. during the night. Nutrients were added as Osmocote® (17:6:10, N:P:K+minor nutrients) at 2 g per 16-oz. pot and 4 g per 32-oz. pot. Water was added on a regular basis to maintain the paddy flood, and supplemental lighting was provided with overhead metal halide 1000-Watt lamps as necessary. The plants were employed for testing when they reached the second or third true leaf stage.
(§2) Treatments consisted of the acid or esters of 4-amino-3-chloro-5-fluoro-6-(4-chloro-2-fluoro-3-methoxy-phenyl)pyridine-2-carboxylic acid (compound A) and various safeners alone and in combination. Forms of compound A were applied on an acid equivalent basis. Safener components were applied on an active ingredient or acid equivalent basis depending on the compound.
(§3) Treatment requirements for each compound or herbicidal component were calculated based upon the rates being tested, the concentration of active ingredient or acid equivalent in the formulation, an application volume of 2 mL per component per pot, and an application area of 86.59 cm^2 per pot.
(§4) For formulated compounds, a measured amount was placed in an individual 100 or 200 mL glass vial and was dissolved in a volume of 1.25% (v/v) Agri-Dex® crop oil concentrate to obtain application solutions.
(§5) For technical grade compounds, a weighed amount can be placed in an individual 100 to 200 mL glass vial and dissolved in a volume of acetone to obtain concentrated stock solutions. […] The concentrated stock solutions obtained can be diluted with an equivalent volume of an aqueous mixture containing 2.5% (v/v) crop oil concentrate so that the final application solutions contain 1.25% (v/v) crop oil concentrate.
(§6) Applications were made by injecting with a pipetter appropriate amounts of the application solutions, individually and sequentially, into the aqueous layer of the paddy. Control plants were treated in the same manner with the solvent blank. Applications were made so that all treated plant material received the same concentrations of acetone and crop oil concentrate.
(§7) The treated plants and control plants were placed in a greenhouse as described above and water was added as needed to maintain a paddy flood. After approximately 3 weeks the condition of the test plants as compared with that of the untreated plants was determined visually and scored on a scale of 0 to 100 percent where 0 corresponds to no injury or growth inhibition and 100 corresponds to complete kill.
Colby's equation was used to determine the herbicidal effects expected from the mixtures (Colby, S. R. 1967. Calculation of the synergistic and antagonistic response of herbicide combinations. Weeds 15:20-22.). […]

[1] = tested on: ECHCG=Echinochloa crus-galli; assay: In-water applied herbicides in paddy, visual injury of weed; format: in vivo
Description: as §1, §2, §3, §4, §5, §6, §7
Some of the safener-herbicide combinations tested, application rates and ratios employed, plant species tested, and results are given in Tables 16-17. […]

In the case of `COc1c(Cl)ccc(-c2nc(C(=O)O)c(Cl)c(N)c2F)c1F` [Acid, 4-amino-3-chloro-6-(4-chloro-2-fluoro-3-methoxyphenyl)-5-fluoropyridine-2-carboxylic acid], the “Mean Visual Injury (%) - 21 DAA ORYSA - ‘M202’” value (ORYSA=Orysa sativa, Rice; 8.75 g ae/ha) was 0%, the “Mean Visual Injury (%) - 21 DAA ORYSA - ‘Wells’” value (ORYSA=Orysa sativa, Rice; 8.75 g ae/ha) was 0% and the “Mean Visual Injury (%) - 21 DAA ORYSA - ‘M202’” value (ORYSA=Orysa sativa, Rice; 17.5 g ae/ha) was 0%. The “Mean Visual Injury (%) - 21 DAA ORYSA - ‘Wells’” value (ORYSA=Orysa sativa, Rice; 17.5 g ae/ha) was 0%, the “Mean Visual Injury (%) - 21 DAA ORYSA - ‘M202’” value (ORYSA=Orysa sativa, Rice; 35 g ae/ha) was 0% and the “Mean Visual Injury (%) - 21 DAA ORYSA - ‘Wells’” value (ORYSA=Orysa sativa, Rice; 35 g ae/ha) was 0%. The “Mean Visual Injury (%) - 21 DAA ORYSA - ‘M202’” value (ORYSA=Orysa sativa, Rice; 70 g ae/ha) was 3%, the “Mean Visual Injury (%) - 21 DAA ORYSA - ‘Wells’” value (ORYSA=Orysa sativa, Rice; 70 g ae/ha) was 0% and the “Mean Visual Injury (%) - 21 DAA ORYSA - ‘M202’” value (ORYSA=Orysa sativa, Rice; 140 g ae/ha) was 25%. For the same molecule, the “Mean Visual Injury (%) - 21 DAA ORYSA - ‘Wells’” value (ORYSA=Orysa sativa, Rice; 140 g ae/ha) was 8%, the “Mean Visual Injury (%) - 21 DAA ECHCG” value ([1]; 8.75 g ae/ha) was 0% and the “Mean Visual Injury (%) - 21 DAA ECHCG” value ([1]; 17.5 g ae/ha) was 0%. The “Mean Visual Injury (%) - 21 DAA ECHCG” value ([1]; 35 g ae/ha) was 10%, the “Mean Visual Injury (%) - 21 DAA ECHCG” value ([1]; 70 g ae/ha) was 63% and the “Mean Visual Injury (%) - 21 DAA ECHCG” value ([1]; 140 g ae/ha) was 95%.

In the case of `COc1c(Cl)ccc(-c2nc(C(=O)OCc3ccccc3)c(Cl)c(N)c2F)c1F` [Benzyl], the “Mean Visual Injury (%) - 21 DAA ORYSA - ‘M202’” value (ORYSA=Orysa sativa, Rice; 8.75 g ae/ha) was 0%, the “Mean Visual Injury (%) - 21 DAA ORYSA - ‘Wells’” value (ORYSA=Orysa sativa, Rice; 8.75 g ae/ha) was 0% and the “Mean Visual Injury (%) - 21 DAA ORYSA - ‘M202’” value (ORYSA=Orysa sativa, Rice; 17.5 g ae/ha) was 0%. The “Mean Visual Injury (%) - 21 DAA ORYSA - ‘Wells’” value (ORYSA=Orysa sativa, Rice; 17.5 g ae/ha) was 0%, the “Mean Visual Injury (%) - 21 DAA ORYSA - ‘M202’” value (ORYSA=Orysa sativa, Rice; 35 g ae/ha) was 0% and the “Mean Visual Injury (%) - 21 DAA ORYSA - ‘Wells’” value (ORYSA=Orysa sativa, Rice; 35 g ae/ha) was 3%. For the same molecule, the “Mean Visual Injury (%) - 21 DAA ORYSA - ‘M202’” value (ORYSA=Orysa sativa, Rice; 70 g ae/ha) was 0%, the “Mean Visual Injury (%) - 21 DAA ORYSA - ‘Wells’” value (ORYSA=Orysa sativa, Rice; 70 g ae/ha) was 0% and the “Mean Visual Injury (%) - 21 DAA ORYSA - ‘M202’” value (ORYSA=Orysa sativa, Rice; 140 g ae/ha) was 22%. The “Mean Visual Injury (%) - 21 DAA ORYSA - ‘Wells’” value (ORYSA=Orysa sativa, Rice; 140 g ae/ha) was 15%, the selectivity margin (ORYSA=Orysa sativa, Rice; in-water, relative rice and barnyardgrass responses, over that of the acid) was “improved selectivity margin” and the “Mean Visual Injury (%) - 21 DAA ECHCG” value ([1]; 8.75 g ae/ha) was 23%. For the same molecule, the “Mean Visual Injury (%) - 21 DAA ECHCG” value ([1]; 17.5 g ae/ha) was 43%, the “Mean Visual Injury (%) - 21 DAA ECHCG” value ([1]; 35 g ae/ha) was 81% and the “Mean Visual Injury (%) - 21 DAA ECHCG” value ([1]; 70 g ae/ha) was 100%. For the same molecule, the “Mean Visual Injury (%) - 21 DAA ECHCG” value ([1]; 140 g ae/ha) was 100%.
